Like-named read-outs stand apart in the source and are kept apart here.
Assays:
Format in all cases: binding
[1] = molecular target: T1, HeLa cell extract proteins (Homo sapiens, UniProt P06733)
T1 construct: endogenous in cells; host or cells: HeLa cell extract

[2] = molecular target: T2, HeLa cell extract proteins (Homo sapiens, UniProt P07900)
T2 construct: endogenous in cells; host or cells: HeLa cell extract

[3] = molecular target: T3, HeLa cell extract proteins (Homo sapiens, UniProt P23528)
T3 construct: endogenous in cells; host or cells: HeLa cell extract
T3 sequence (P23528 whole entry): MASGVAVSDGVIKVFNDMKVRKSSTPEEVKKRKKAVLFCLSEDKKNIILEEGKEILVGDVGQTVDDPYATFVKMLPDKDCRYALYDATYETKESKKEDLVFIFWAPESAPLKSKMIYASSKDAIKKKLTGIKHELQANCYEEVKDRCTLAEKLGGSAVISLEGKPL

[4] = molecular target: T4, HeLa cell extract proteins (Homo sapiens, UniProt P51648)
T4 construct: endogenous in cells; host or cells: HeLa cell extract
T4 sequence (P51648 whole entry): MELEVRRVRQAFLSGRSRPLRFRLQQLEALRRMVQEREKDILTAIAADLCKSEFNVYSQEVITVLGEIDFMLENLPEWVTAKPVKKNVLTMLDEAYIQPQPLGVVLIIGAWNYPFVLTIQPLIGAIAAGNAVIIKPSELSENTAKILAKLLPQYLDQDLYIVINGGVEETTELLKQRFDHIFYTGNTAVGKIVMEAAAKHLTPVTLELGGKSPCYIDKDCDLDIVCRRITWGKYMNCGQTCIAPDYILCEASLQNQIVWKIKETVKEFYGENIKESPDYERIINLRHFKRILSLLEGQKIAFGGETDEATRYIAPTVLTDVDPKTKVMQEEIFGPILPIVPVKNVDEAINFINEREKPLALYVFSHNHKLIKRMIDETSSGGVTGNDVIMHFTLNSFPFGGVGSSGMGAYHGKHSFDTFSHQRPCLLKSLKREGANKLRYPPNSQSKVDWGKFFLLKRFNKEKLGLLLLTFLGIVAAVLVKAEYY

[5] = molecular target: T5, HeLa cell extract proteins (Homo sapiens, UniProt P53999)
T5 construct: endogenous in cells; host or cells: HeLa cell extract

[6] = molecular target: T6, HeLa cell extract proteins (Homo sapiens, UniProt Q04837)
T6 construct: endogenous in cells; host or cells: HeLa cell extract
T6 sequence (Q04837 17-148): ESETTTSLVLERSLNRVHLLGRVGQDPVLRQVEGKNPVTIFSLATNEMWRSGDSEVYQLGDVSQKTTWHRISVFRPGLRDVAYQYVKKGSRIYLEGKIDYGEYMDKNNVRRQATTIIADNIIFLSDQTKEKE

[7] = molecular target: T7, HeLa cell extract proteins (Homo sapiens, UniProt Q12769)
T7 construct: endogenous in cells; host or cells: HeLa cell extract
T7 sequence (Q12769 1-1436): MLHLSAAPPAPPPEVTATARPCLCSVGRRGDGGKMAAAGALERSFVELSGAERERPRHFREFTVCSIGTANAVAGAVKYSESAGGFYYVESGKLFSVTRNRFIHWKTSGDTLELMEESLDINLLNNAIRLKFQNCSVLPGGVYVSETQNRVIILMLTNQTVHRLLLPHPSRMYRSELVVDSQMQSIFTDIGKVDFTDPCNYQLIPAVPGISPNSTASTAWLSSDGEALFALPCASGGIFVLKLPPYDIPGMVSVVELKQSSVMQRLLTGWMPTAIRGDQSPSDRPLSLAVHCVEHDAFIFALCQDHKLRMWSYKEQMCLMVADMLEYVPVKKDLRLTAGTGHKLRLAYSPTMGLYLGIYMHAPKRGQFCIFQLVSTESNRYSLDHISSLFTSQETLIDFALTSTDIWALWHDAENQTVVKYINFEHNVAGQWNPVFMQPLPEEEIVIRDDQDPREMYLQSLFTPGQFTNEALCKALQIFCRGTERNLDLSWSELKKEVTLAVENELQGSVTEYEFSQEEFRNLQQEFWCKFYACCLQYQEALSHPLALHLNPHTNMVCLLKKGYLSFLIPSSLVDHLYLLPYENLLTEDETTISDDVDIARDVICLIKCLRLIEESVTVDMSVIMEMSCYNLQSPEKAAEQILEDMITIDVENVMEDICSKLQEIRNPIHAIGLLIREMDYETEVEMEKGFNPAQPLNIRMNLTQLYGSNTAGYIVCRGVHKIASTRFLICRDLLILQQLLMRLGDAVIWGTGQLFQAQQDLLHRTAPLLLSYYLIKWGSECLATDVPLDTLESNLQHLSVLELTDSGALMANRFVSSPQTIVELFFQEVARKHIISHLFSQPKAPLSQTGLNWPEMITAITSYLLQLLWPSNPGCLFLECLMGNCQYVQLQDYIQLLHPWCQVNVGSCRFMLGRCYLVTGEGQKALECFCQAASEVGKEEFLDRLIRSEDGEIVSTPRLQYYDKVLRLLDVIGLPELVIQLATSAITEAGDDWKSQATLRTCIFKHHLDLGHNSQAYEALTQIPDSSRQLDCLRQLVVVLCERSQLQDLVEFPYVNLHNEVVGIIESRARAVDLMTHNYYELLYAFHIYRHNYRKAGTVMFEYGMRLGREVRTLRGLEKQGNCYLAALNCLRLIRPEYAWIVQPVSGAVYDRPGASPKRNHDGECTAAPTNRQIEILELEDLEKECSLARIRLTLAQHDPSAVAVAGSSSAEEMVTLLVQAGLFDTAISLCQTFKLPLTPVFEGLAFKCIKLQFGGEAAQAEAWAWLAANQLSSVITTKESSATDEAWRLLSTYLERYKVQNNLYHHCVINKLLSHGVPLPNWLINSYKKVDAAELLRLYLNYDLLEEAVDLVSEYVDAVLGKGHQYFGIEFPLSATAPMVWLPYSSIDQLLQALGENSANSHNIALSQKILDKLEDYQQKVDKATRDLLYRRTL

[8] = molecular target: T8, HeLa cell extract proteins (Homo sapiens, UniProt Q709F0)
T8 construct: endogenous in cells; host or cells: HeLa cell extract
T8 sequence (Q709F0 1-780): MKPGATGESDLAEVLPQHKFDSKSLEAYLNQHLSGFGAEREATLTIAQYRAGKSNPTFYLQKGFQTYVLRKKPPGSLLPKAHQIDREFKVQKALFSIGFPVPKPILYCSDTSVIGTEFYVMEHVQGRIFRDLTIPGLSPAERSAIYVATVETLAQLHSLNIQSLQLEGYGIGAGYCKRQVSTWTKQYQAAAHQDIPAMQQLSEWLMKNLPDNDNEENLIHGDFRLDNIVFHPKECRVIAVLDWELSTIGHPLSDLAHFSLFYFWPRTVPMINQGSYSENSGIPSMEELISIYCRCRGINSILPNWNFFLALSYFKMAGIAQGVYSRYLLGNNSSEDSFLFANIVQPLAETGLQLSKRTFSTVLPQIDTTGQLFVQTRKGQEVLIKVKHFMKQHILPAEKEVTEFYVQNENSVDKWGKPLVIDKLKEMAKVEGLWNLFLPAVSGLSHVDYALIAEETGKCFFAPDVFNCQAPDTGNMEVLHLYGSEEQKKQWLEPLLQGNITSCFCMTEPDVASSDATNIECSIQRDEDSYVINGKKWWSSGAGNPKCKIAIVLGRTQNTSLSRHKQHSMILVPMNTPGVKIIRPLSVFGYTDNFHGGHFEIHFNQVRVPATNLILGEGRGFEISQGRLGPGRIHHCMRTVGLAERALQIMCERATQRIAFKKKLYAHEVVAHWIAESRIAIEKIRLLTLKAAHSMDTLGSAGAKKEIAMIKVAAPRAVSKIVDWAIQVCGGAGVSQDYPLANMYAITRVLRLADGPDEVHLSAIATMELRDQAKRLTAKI

[9] = HeLa, protein ENO1 (ISOFORM ALPHA-ENOLASE OF ALPHA-ENOLASE.)
[10] = HeLa, protein HSP90AA1 (HEAT SHOCK PROTEIN 90KDA ALPHA (CYTOSOLIC), CLASS A MEMBER 1 ISOFORM 1.)
[11] = HeLa, protein CFL1 (COFILIN-1.)

T1 sequence (P06733 whole entry): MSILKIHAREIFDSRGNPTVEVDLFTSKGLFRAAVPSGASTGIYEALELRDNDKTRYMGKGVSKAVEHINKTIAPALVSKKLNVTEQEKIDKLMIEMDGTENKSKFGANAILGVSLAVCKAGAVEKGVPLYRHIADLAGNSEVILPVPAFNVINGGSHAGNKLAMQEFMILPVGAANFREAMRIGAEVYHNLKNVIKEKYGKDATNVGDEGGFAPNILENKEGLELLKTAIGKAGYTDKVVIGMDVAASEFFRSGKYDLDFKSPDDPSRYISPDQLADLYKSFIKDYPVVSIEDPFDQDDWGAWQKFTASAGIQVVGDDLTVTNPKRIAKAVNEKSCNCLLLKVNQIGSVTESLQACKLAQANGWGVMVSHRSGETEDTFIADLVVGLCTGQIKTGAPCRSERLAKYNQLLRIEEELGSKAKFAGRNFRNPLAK

Structure (SMILES) | fold changes relative to vehicle control ([1]; HeLa, protein ENO1) | fold changes relative to vehicle control ([2]; HeLa, protein HSP90AA1) | fold changes relative to vehicle control ([3]; protein CFL1, HeLa) | fold changes relative to vehicle control ([4]; HeLa, protein ALDH3A2) | fold changes relative to vehicle control ([5]; HeLa, protein SUB1) | fold changes relative to vehicle control ([6]; HeLa, protein SSBP1) | fold changes relative to vehicle control ([7]; HeLa, captured protein NUP160) | fold changes relative to vehicle control ([8]; HeLa, protein ACAD11) | fold changes relative to vehicle control [1, 9] [fold] | fold changes relative to vehicle control [2, 10] [fold] | fold changes relative to vehicle control [3, 11] [fold] | fold changes relative to vehicle control ([5]; protein SUB1, HeLa) | fold changes relative to vehicle control ([7]; HeLa, protein NUP160) | fold changes relative to vehicle control ([8]; captured protein ACAD11, HeLa) | further results
Nc1nc2c(c(=O)[nH]1)N(C=O)C(CNc1ccc(C(=O)N[C@@H](CCC(=O)O)C(=O)O)cc1)CN2 (some centres unmarked) [LEU, leucovorin] | 1.07 | 1.06 | 0.76 | 0.89 | 0.7 | 1.07 | 1.02 | 1.12 |  |  |  |  |  |  | 
Nc1nc2[nH]cc(CCc3ccc(C(=O)N[C@@H](CCC(=O)O)C(=O)O)cc3)c2c(=O)[nH]1 [PTX, pemetrexed] |  |  |  |  |  |  |  |  |  |  |  |  |  |  | fold changes relative to vehicle control [1]: 1.14; fold changes relative to vehicle control [2]: 1.13; fold changes relative to vehicle control [3]: 0.79; fold changes relative to vehicle control [4]: 0.93; fold changes relative to vehicle control [5]: 1.08; fold changes relative to vehicle control [6]: 1; fold changes relative to vehicle control [7]: 1.07; fold changes relative to vehicle control [8]: 0.98
CCCCCCOc1ccc(Cc2cnc(N)nc2N)cc1 [compound 1] |  |  |  | 0.94 |  | 1.05 |  |  | 1.47 | 1.4 | 1.27 | 0.91 | 1.03 | 1.02 | 
CCCCCCOc1cccc(Cc2cnc(N)nc2N)c1 [compound 2] |  |  |  | 1.07 |  | 0.95 |  |  | 2.6 | 2.39 | 2.02 | 0.99 | 1.11 | 0.77 | 
Nc1nc2cccc(-c3ccccc3)c2n1Cc1ccc(Cl)c(Cl)c1 [compound 3] |  |  |  | 1.05 |  | 1 |  |  | 0.84 | 0.94 | 0.82 | 1.13 | 1.2 | 1.07 | 
NCCOCCOCC(=O)Nc1nc2ncc(CNc3ccc(C(=O)NC(CCC(=O)O)C(=O)O)cc3)nc2c(=O)[nH]1 (centres unmarked) [compound 6] | 1.26 | 1.32 | 0.89 | 0.92 | 1.03 | 0.96 | 1.14 | 0.95 |  |  |  |  |  |  | 
NCCCNc1ccc(C(=O)NC(CCC(=O)O)C(=O)O)cc1 (centres unmarked) [compound 7] | 0.9 | 0.92 | 0.69 | 0.89 | 0.87 | 0.95 | 1.12 | 1.05 |  |  |  |  |  |  | 

Reference: PMC6199744, “Development of Chemical Proteomics for the Folateome and Analysis of the Kinetoplastid Folateome” (ACS Infectious Diseases, 2018)
